This is an account of results in EPA's ToxRefDB 2.

Series [1] deals with rat. The conditions noted are these: Combined chronic toxicity/carcinogenicity, fischer, Oral, Feed, dose end: 24 month.
The next series deals with rabbit. The conditions noted are these: Prenatal developmental toxicity study, chinchilla, Oral, Gavage/Intubation, dose end: 18 GD.
Series [2] has as its system mouse. The conditions noted are these: Carcinogenicity, cd1, Oral, Feed, dose end: 87 week, group: systemic.
Series [3] has as its system rat. The conditions noted are these: Multigenerational reproductive toxicity study, sprague dawley, Oral, Feed, dose end: 2 generation.
Series [4] has as its system rat. The conditions noted are these: Prenatal developmental toxicity study, sprague dawley, Oral, Gavage/Intubation, dose end: 15 GD.
Series [5] concerns rat. Particulars: Combined chronic toxicity/carcinogenicity, sprague dawley, Oral, Feed, dose end: 24 month, group: systemic.
Series [6] concerns mouse. The conditions noted are these: Carcinogenicity, cd1, Oral, Feed, dose end: 2 year, group: systemic.
[7] abbreviates: group: cholinesterase, cholinesterase / cholinesterase / cholinesterase / brain cholinesterase (che) + cholinesterase / cholinesterase / cholinesterase / ….
The mark [8] stands for this setting: group: systemic, systemic / hematology / mean corpuscular (cell) volume (mcv) / mean corpuscular (cell) volume (mcv) + systemic / in life observation / body ….
The mark [9] stands for this setting: group: developmental, developmental / developmental malformation / bone / absent + developmental / developmental malformation / bone / fused + developmental / ….
[10] abbreviates: group: maternal, systemic / in life observation / body weight / body weight gain + systemic / in life observation / clinical signs / ataxia + systemic / in ….
Setting [11] is: systemic / organ weight / brain / absolute.
Where [12] appears, read: systemic / organ weight / brain / absolute + systemic / in life observation / body weight / body weight + systemic / in life observation / ….
Where [13] appears, read: group: cholinesterase, cholinesterase / cholinesterase / cholinesterase / plasma cholinesterase (che).
Where [14] appears, read: group: offspring, developmental / offspring survival late / lactation index / lactation index.
The mark [15] stands for this setting: group: offspring, developmental / offspring survival late / lactation index / lactation index + systemic / in life observation / body weight / offspring (pup….
Where [16] appears, read: group: parental, systemic / in life observation / body weight / body weight.
Setting [17] is: group: parental, systemic / organ weight / ovary / relative to body weight.
The mark [18] stands for this setting: group: developmental, developmental / developmental malformation / bone / incomplete ossification + developmental / developmental malformation / interparietal / ….
The mark [19] stands for this setting: group: maternal, systemic / in life observation / body weight / body weight + systemic / in life observation / food consumption / food consumption.
Setting [20] is: group: maternal, systemic / in life observation / body weight / body weight + systemic / in life observation / food consumption / food consumption + systemic….
[21] abbreviates: systemic / pathology microscopic / mammary gland / adenocarcinoma.
[22] abbreviates: systemic / pathology microscopic / heart / degeneration.
The mark [23] stands for this setting: systemic / pathology microscopic / heart / degeneration + systemic / pathology microscopic / liver / hemosiderin laden macrophages.

Each structure is given as a SMILES string.

Broadly, the LOAEL is the lowest tested level that showed an adverse finding. For orientation: NOAEL means the highest tested level that showed no adverse finding. For the molecule `CCOP(=O)(NC(C)C)Oc1ccc(SC)c(C)c1` (stereo not drawn) [Fenamiphos], the LEL in the series on rat [1] (setting [7]) was 0.098 mg/kg/day; with rat [1] (setting [8]), 2.45 mg/kg/day; in the series with rabbit (setting [9]), 2.5 mg/kg/day; with rabbit (setting [10]), 2.5 mg/kg/day; with mouse [2] (setting [11]), 0.3 mg/kg/day; in the series with rat [3] (setting [13]), 0.19 mg/kg/day. In addition, the LEL in the series on rat [3] (setting [14]) turned out to be 0.65 mg/kg/day; in the series with rat [3] (setting [17]), 0.2 mg/kg/day. In addition, the LOAEL is 0.098 mg/kg/day with rat [1] (setting [7]); above 2.45 mg/kg/day in the series on rat [1] (setting [8]); 2.5 mg/kg/day with rabbit (setting [9]); 2.5 mg/kg/day with rabbit (setting [10]); above 7.5 mg/kg/day in the series on mouse [2] (setting [12]); 0.19 mg/kg/day with rat [3] (setting [13]). The figures for the LOAEL in the series with rat [3] (setting [14]) and in the series on rat [3] (setting [16]) were 0.65 mg/kg/day and above 2.94 mg/kg/day, respectively. Besides, the NEL with rat [1] (setting [7]) was below 0.098 mg/kg/day; in the series on rat [1] (setting [8]), 0.464 mg/kg/day; with rabbit (setting [9]), 0.5 mg/kg/day; in the series on rabbit (setting [10]) it was 0.5 mg/kg/day; in the series on mouse [2] (setting [11]) it was below 0.3 mg/kg/day; in the series with rat [3] (setting [13]) it was below 0.19 mg/kg/day. Further, the NEL in the series with rat [3] (setting [15]) is 0.17 mg/kg/day; with rat [3] (setting [17]), below 0.2 mg/kg/day. The NOAEL was below 0.098 mg/kg/day in the series with rat [1] (setting [7]); at least 2.45 mg/kg/day in the series with rat [1] (setting [8]); 0.5 mg/kg/day with rabbit (setting [9]); 0.5 mg/kg/day in the series on rabbit (setting [10]); at least 7.5 mg/kg/day in the series on mouse [2] (setting [12]); below 0.19 mg/kg/day with rat [3] (setting [13]). Further, the values for the NOAEL in the series on rat [3] (setting [15]) and in the series with rat [3] (setting [16]) were 0.17 mg/kg/day and at least 2.94 mg/kg/day, respectively.

Turning to `CC(C)Nc1nc(Cl)nc(NC(C)C)n1` [Propazine], the LOAEL came to 100 mg/kg/day in the series on rat [4] (setting [18]), 100 mg/kg/day in the series with rat [4] (setting [19]), 51 mg/kg/day in the series on rat [5] (systemic / in life observation / body weight / body weight) and 450 mg/kg/day in the series with mouse [6] (setting [23]). Besides, the NEL is 10 mg/kg/day in the series on rat [4] (setting [18]), 10 mg/kg/day in the series with rat [4] (setting [20]), below 0.2 mg/kg/day in the series on rat [5] (setting [21]) and 150 mg/kg/day with mouse [6] (setting [22]). In addition, the NOAEL in the series on rat [4] (setting [18]) came to 10 mg/kg/day; in the series with rat [4] (setting [20]) it was 10 mg/kg/day; in the series with rat [5] (systemic / in life observation / body weight / body weight + systemic / in life observation / body weight / body weight gain), 5.2 mg/kg/day; in the series on mouse [6] (setting [22]) it was 150 mg/kg/day. Besides, the LEL is 100 mg/kg/day with rat [4] (group: developmental, developmental / developmental malformation / interparietal / incomplete ossification); 100 mg/kg/day in the series with rat [4] (setting [19]); 0.2 mg/kg/day in the series on rat [5] (setting [21]); 450 mg/kg/day with mouse [6] (setting [23]).
